Laboratory results taken from PubChem BioAssay AID1845202 (Molecular Pharmacology Branch, DTP, NCI, 2023).
Several values for one entry are separate records, joined by “and”; a condition that tells them apart may be missing. Identical values can stand only once.

Tested on: DMS 114 tumor spheroids, viability % test/control
Assay: Anticancer human tumor DMS 114 cell line growth inhibition;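 also: spheroids exposed to compounds for 7 days before read-out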;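 as to viability, T/C: luminescence used as a proxy for viable cells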
Details: spheroids with HUVEC and MSC; for viability, T/C: stronger effect = lower value
Method in brief: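 Single agents and combinations were tested on spheroids built from tumor cells plus HUVEC and hMSC, at half-log dilutions starting at or near clinical Cmax, else 10 microM; final DMSO 0.25% (v/v).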

CNCc1ccc(-c2cc(-c3nc(-c4ccc(S(=O)(=O)C(C)C)cc4)cnc3N)on2)cc1 + CC[C@@]1(O)C(=O)OCc2c1cc1n(c2=O)Cc2cc3c(CN(C)C)c(O)ccc3nc2-1
IC50 (curve of first compound, second compound 0.003 µM): 0.06 µM | IC50 (curve of first compound, second compound 0.00949 µM): 0.025 µM | IC50 (curve of first compound, second compound 0.03 µM): < 0.00949 µM | IC50 (curve of first compound, second compound 0.0949 µM): < 0.00949 µM | IC50 (curve of first compound, second compound 0.3 µM): < 0.00949 µM | viability, T/C (second compound 0.003 µM, first compound 0.00949 µM): 98.5% | viability, T/C (second compound 0.003 µM, first compound 0.03 µM): 68.3% | viability, T/C (second compound 0.003 µM, first compound 0.0949 µM): 37.7% | viability, T/C (second compound 0.003 µM, first compound 0.3 µM): 17.1% | viability, T/C (second compound 0.003 µM, first compound 0.949 µM): 2.3% | viability, T/C (second compound 0.003 µM, first compound 3 µM): 0.16% | viability, T/C (second compound 0.00949 µM, first compound 0.00949 µM): 80.3% | viability, T/C (second compound 0.00949 µM, first compound 0.03 µM): 43% | viability, T/C (second compound 0.00949 µM, first compound 0.0949 µM): 23.5% | viability, T/C (second compound 0.00949 µM, first compound 0.3 µM): 14.3% | viability, T/C (second compound 0.00949 µM, first compound 0.949 µM): 3.11% | viability, T/C (second compound 0.00949 µM, first compound 3 µM): 0.14% | viability, T/C (second compound 0.03 µM, first compound 0.00949 µM): 31.3% | viability, T/C (second compound 0.03 µM, first compound 0.03 µM): 26.6% | viability, T/C (second compound 0.03 µM, first compound 0.0949 µM): 23.7% | viability, T/C (second compound 0.03 µM, first compound 0.3 µM): 11.9% | viability, T/C (second compound 0.03 µM, first compound 0.949 µM): 1.54% | viability, T/C (second compound 0.03 µM, first compound 3 µM): 0.13% | viability, T/C (second compound 0.0949 µM, first compound 0.00949 µM): 16.2% | viability, T/C (second compound 0.0949 µM, first compound 0.03 µM): 17% | viability, T/C (second compound 0.0949 µM, first compound 0.0949 µM): 12.5% | viability, T/C (second compound 0.0949 µM, first compound 0.3 µM): 9.06% | viability, T/C (second compound 0.0949 µM, first compound 0.949 µM): 1.27% | viability, T/C (second compound 0.0949 µM, first compound 3 µM): 0.12% | viability, T/C (second compound 0.3 µM, first compound 0.00949 µM): 8.52% | viability, T/C (second compound 0.3 µM, first compound 0.03 µM): 8.82% | viability, T/C (second compound 0.3 µM, first compound 0.0949 µM): 9.74% | viability, T/C (second compound 0.3 µM, first compound 0.3 µM): 6.32% | viability, T/C (second compound 0.3 µM, first compound 0.949 µM): 0.95% | viability, T/C (second compound 0.3 µM, first compound 3 µM): 0.2%

Cn1ncnc1[C@H]1c2n[nH]c(=O)c3cc(F)cc(c23)N[C@@H]1c1ccc(F)cc1
viability, T/C (compound 0.00949 µM): 117% and 110% and 92% | viability, T/C (compound 0.03 µM): 94.9% and 113% and 95.8% | viability, T/C (compound 0.0949 µM): 91.3% and 103% and 87.2% | viability, T/C (compound 0.3 µM): 72.8% and 101% and 65.3% | viability, T/C (compound 0.949 µM): 34.5% and 47.5% and 32.3% | viability, T/C (compound 3 µM): 9.35% and 15.3% and 10.1% | IC50 (curve of compound): 0.611 µM and 0.901 µM and 0.514 µM

Cc1sc2c(c1C)C(c1ccc(Cl)cc1)=NC(CC(=O)Nc1ccc(O)cc1)c1nnc(C)n1-2 (configuration not stated) + Cn1nnc2c(C(N)=O)ncn2c1=O
IC50 (curve of first compound, second compound 1 µM): 0.158 µM | IC50 (curve of first compound, second compound 3.16 µM): 0.194 µM | IC50 (curve of first compound, second compound 10 µM): 0.17 µM | IC50 (curve of first compound, second compound 31.6 µM): 0.167 µM | IC50 (curve of first compound, second compound 100 µM): 0.116 µM | viability, T/C (second compound 1 µM, first compound 0.00949 µM): 98.8% | viability, T/C (second compound 1 µM, first compound 0.03 µM): 101% | viability, T/C (second compound 1 µM, first compound 0.0949 µM): 64.5% | viability, T/C (second compound 1 µM, first compound 0.3 µM): 29.9% | viability, T/C (second compound 1 µM, first compound 0.949 µM): 11.3% | viability, T/C (second compound 1 µM, first compound 3 µM): 6.69% | viability, T/C (second compound 3.16 µM, first compound 0.00949 µM): 104% | viability, T/C (second compound 3.16 µM, first compound 0.03 µM): 103% | viability, T/C (second compound 3.16 µM, first compound 0.0949 µM): 81.4% | viability, T/C (second compound 3.16 µM, first compound 0.3 µM): 30.7% | viability, T/C (second compound 3.16 µM, first compound 0.949 µM): 10.7% | viability, T/C (second compound 3.16 µM, first compound 3 µM): 6.68% | viability, T/C (second compound 10 µM, first compound 0.00949 µM): 102% | viability, T/C (second compound 10 µM, first compound 0.03 µM): 108% | viability, T/C (second compound 10 µM, first compound 0.0949 µM): 71.6% | viability, T/C (second compound 10 µM, first compound 0.3 µM): 28.1% | viability, T/C (second compound 10 µM, first compound 0.949 µM): 10.7% | viability, T/C (second compound 10 µM, first compound 3 µM): 4.92% | viability, T/C (second compound 31.6 µM, first compound 0.00949 µM): 114% | viability, T/C (second compound 31.6 µM, first compound 0.03 µM): 100% | viability, T/C (second compound 31.6 µM, first compound 0.0949 µM): 71% | viability, T/C (second compound 31.6 µM, first compound 0.3 µM): 28.6% | viability, T/C (second compound 31.6 µM, first compound 0.949 µM): 9.45% | viability, T/C (second compound 31.6 µM, first compound 3 µM): 4.67% | viability, T/C (second compound 100 µM, first compound 0.00949 µM): 93.9% | viability, T/C (second compound 100 µM, first compound 0.03 µM): 93% | viability, T/C (second compound 100 µM, first compound 0.0949 µM): 55.1% | viability, T/C (second compound 100 µM, first compound 0.3 µM): 18.9% | viability, T/C (second compound 100 µM, first compound 0.949 µM): 6.62% | viability, T/C (second compound 100 µM, first compound 3 µM): 2.68%
